Data reported in PMC4926433, “Isoquercitrin Esters with Mono- or Dicarboxylic Acids: Enzymatic Preparation and Properties” (International Journal of Molecular Sciences, 2016).
Converted amounts (≈) assume the structure as drawn. “And” between values parts separate entries of the source, which are not always exact repeats. Identical values can stand only once.

Legend:
[1] = 50 °C, cited from earlier work
Solubility in water = format: physicochemical; conditions: pH = 6.5, isoquercitrin purity 96.5%
Excerpt: The hydrophilicity/lipophilicity of a compound is often crucial for assessing its bioavailability. Flavonoids are generally poorly soluble in water; aqueous solubility increases at alkaline pH as phenols are weak acids. […] [15]).

[2] = ABTS radical cation scavenging (Antioxidant Assay Kit); format: biochemical; conditions: Trolox equivalents; aqueous buffer pH 5; mean ± SE
Description: Determination of ABTS scavenging activity involves an electron-transfer reaction. […] The capacity to scavenge the radical cation (ABTS^·) was evaluated using the Antioxidant Assay Kit (CS0790, Sigma-Aldrich, Prague, Czech Republic) and expressed as Trolox equivalents (TE) from the Trolox calibration curve.

[3] = Folin–Ciocalteau reduction (FCR) assay, reducing capacity; format: biochemical; conditions: gallic acid equivalents; mean ± SE
Description: Folin-Ciocalteu assay, commonly known as the total phenols assay, determines a sample reducing capacity. FCR contains heteropolyphosphotunstate-molybdates, which are reduced in aqueous milieu at pH ≈ 10 to blue species, presumably (PMoW11O40)^4- [29]. […] This is probably related to high hydrophobicity of these derivatives. Reducing capacity was evaluated using Folin-Ciocalteau reagent with minor modifications as described previously.

[4] = pH not given; cited from earlier work
[5] = DPPH radical scavenging assay; format: biochemical; conditions: methanol, DPPH 20 µM, 30 min; mean ± SE
Description: When reduced, the solution decolorizes in proportion to the strength and concentration of the antiradical compound tested. The results of this test are usually expressed as the concentration of the compound that reduces 50% of the radical (IC50, Table 1). […] However, no clear relationship between the carboxylic chain length and DPPH radical scavenging activity could be established. Antiradical activity was evaluated spectrophotometrically as the ability of the substances to reduce the DPPH radical as described previously with minor modifications.

[6] = system: rat liver microsomal membranes; assay: Inhibition of microsomal lipid peroxidation induced by tert-butyl hydroperoxide (TBARS); format: biochemical; conditions: male rat liver microsomes, tert-butylhydroperoxide 1 mM, 37 °C, 30 min, TBARS; mean ± SE; read-out: Lpx (IC50; µM)
Excerpt: Lipid peroxidation is a type of oxidative degradation of lipids caused by free radicals in cell membranes, resulting in cell damage. The most notable initiators of this chain reaction in living cells are reactive oxygen species (ROS), such as OH· and HO2·, which combine with a hydrogen atom to make water and a fatty acid radical. We used tert-butyl hydroperoxide, a relatively stable organic peroxide, as initiator of peroxidation of rat liver microsomal membranes. The inhibition of this reaction depends not only on the free radical scavenging capacity, but also on the capacity of these compounds to interact with and penetrate lipid bilayers. Isoquercitrin derivatives differed considerably in their capacity to inhibit the peroxidation of microsomal membranes. […] A similar trend, e.g., improving the activity in medium chain derivatives with subsequent drop for longer chain esters, was reported for anti-proliferative activity of IQ monocarboxylic acid esters on the growth of tumoral Caco2 cells, and also for the inhibition of tyrosinase activity.
Pooled microsomes from male rat livers (M9066, Sigma-Aldrich, Prague, Czech Republic) were washed five times using centrifugation and phosphate-buffered saline (PBS, 13,500 rpm, 5 min, 4 °C) to remove sucrose. In addition, 400 µL of the diluted microsomal suspension (0.625 mg protein/mL in PBS), the compounds tested in 50 µL of dimethyl sulfoxide (DMSO, final concentration 5–2000 µM) and 50 µL of tert-butylhydroperoxide in PBS (final concentration 1 mM) were mixed and incubated at 37 °C for 30 min. Determination of lipid peroxidation products as thiobarbituric acid reactive substances (TBARS) and calculation of the IC50 values were performed as described previously.

In the case of `O=c1c(O[C@@H]2O[C@H](CO)[C@@H](O)[C@H](O)[C@H]2O)c(-c2ccc(O)c(O)c2)oc2cc(O)cc(O)c12` [Compound 1, quercetin-3-O-β-D-glucopyranoside, reference compound], the solubility in acetone ([1]; acetone) is given as 14 g/L (≈ 30100 µM), the solubility in acetonitrile ([1]; acetonitrile) is given as 1.8 g/L (≈ 3880 µM) and the “solubility in tert-amyl alcohol” value ([1]; tert-amyl alcohol) is given as 30 g/L (≈ 64600 µM). The solubility (Solubility in water) was 360 µg/mL (≈ 775 µM), the “ABTS (TE)” value [2] was 1.97 TE and 1.97 ± 0.06 ^i TE and the “FCR (GAE)” value [3] was 1.84 GAE and 1.84 ± 0.04 ^a GAE. For the same compound, the solubility in water [4] was 95 mg/L (≈ 205 µM), the IC50 [5] was 1.4 ± 0.06 µM and the IC50 [6] was 972 ± 11 µM.
